pEC50: −log10 of the molar value.
Target: T1, sGC α1/β1 heterodimer stably expressed in CHO-K1 cells (CHO-K1/sGC) (Homo sapiens, UniProt Q02108+Q02153)
T1 construct: expressed in transfected cells
T1 sequence (Q02108 1-690): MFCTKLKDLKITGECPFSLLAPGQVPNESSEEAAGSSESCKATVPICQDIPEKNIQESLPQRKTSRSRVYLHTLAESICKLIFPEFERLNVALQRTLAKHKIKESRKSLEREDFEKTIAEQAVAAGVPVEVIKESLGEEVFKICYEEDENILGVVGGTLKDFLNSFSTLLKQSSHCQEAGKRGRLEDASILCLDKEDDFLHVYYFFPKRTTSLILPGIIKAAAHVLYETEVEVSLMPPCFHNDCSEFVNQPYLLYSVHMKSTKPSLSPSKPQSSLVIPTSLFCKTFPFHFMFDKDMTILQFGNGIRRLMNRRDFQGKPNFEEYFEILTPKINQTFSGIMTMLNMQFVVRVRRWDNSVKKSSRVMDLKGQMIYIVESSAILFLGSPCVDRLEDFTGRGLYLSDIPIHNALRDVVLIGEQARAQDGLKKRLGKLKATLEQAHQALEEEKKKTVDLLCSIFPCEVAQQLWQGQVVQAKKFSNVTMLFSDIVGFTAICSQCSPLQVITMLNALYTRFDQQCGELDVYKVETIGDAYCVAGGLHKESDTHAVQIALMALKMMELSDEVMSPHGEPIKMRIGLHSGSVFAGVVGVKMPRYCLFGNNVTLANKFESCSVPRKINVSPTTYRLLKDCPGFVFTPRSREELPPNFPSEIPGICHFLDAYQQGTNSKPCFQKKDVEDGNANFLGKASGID
T1 sequence (Q02153 1-619): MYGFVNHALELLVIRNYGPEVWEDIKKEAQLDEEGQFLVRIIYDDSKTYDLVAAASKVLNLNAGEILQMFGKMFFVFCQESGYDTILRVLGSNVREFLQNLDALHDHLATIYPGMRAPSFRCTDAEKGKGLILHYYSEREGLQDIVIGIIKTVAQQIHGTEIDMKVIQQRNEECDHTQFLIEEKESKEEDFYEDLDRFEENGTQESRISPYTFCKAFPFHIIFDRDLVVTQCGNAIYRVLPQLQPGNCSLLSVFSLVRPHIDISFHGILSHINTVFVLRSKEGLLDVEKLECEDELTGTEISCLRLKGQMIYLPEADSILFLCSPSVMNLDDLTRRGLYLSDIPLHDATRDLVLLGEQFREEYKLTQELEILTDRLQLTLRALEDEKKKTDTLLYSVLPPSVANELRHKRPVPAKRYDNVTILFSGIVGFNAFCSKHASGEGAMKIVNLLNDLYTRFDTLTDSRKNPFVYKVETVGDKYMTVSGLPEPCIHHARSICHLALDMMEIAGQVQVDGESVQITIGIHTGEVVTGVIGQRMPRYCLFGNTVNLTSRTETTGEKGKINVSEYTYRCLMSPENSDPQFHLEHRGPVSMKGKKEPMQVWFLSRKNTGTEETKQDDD
Test: Cell-based sGC Functional Assay (CASA Assay)
Conditions: for % Act.: activation as percentage of maximum cGMP production of Compound A (set to 100%); for pEC50: inflection point of cGMP generation in CHO-K1/sGC cells, 4P fit, 1 hr at 37° C., read-out: IP; for Emax: CHO-K1, activation as percentage of maximum cGMP production of Compound A (set to 100%), read-out: % Act.
Excerpt: sGC is a heme-containing enzyme that converts GTP to secondary messenger cGMP. Increases in cGMP levels affect several physiological processes including vasorelaxation through multiple downstream pathways. […] Heme-dependent activators (HDAs) preferentially activate sGC containing a ferrous heme group. To determine the effect of sGC activators on enzyme activity, the CASA assay was developed to monitor the generation of cGMP in a cell line that stably expresses the heterodimeric sGC protein.
A CHO-K1 cell line stably expressing the sGC α1/β1 heterodimer was generated using a standard transfection protocol. CHO-K1 cells were transfected with plasmids pIREShyghsGCα1 and pIRESneo-hsGCβ1 simultaneously using FUGENE reagent. Clones that stably express both subunits were selected with hygromycin and neomycin for ˜2 weeks. Clone #7 was chosen for the assay and was designated CHO-K1/sGC. CHO-K1/sGC cells were maintained in F-K12 medium containing 10% heat-inactivated Fetal Bovine Serum (FBS), 100 μg/mL penicillin/streptomycin, 0.5 mg/mL hygromycin and 0.25 mg/mL G418. The cells were then cryopreserved in LN2. On the day of the assay, cells thawed and resuspended in EBSS Assay Buffer (EAB, Sigma, E3024) supplemented with 5 mM MgCl2, 10 mM HEPES (4-(2-hydroxyethyl)piperazine-1-ethanesulfonic acid) and 0.05% BSA (bovine serum albumin) and cell density was then adjusted to 4×10^5/mL with EAB. IBMX (3-isobutyl-1-methylxanthin, 0.5 mM) was added to inhibit degradation of cGMP. Compounds were diluted from DMSO stock solutions and added to the assay at a final DMSO concentration of 2.5%. Cells were incubated with compounds in the presence and absence of 1 μM of Diethylenetriamine/nitric oxide adduct (DETA-NO; Sigma, 17018) for 1 hr at 37° C. At the end of the incubation period, the reaction was terminated and the cells were lysed with the detection reagents from Cisbio Kits. The level of intracellular cGMP was determined using an HTRF-based assay kit (CisBio, 62GM2PEC), which detects the displacement of a fluorescence labeled cGMP from its specific antibody. The cGMP produced by test compounds was directly compared to the maximum cGMP production (this value was set to equal 100% activation.) of the published sGC-HDA Compound A:
(Example 1 in WO 2010/065275, published Jun. 10, 2010). The test compounds' activity were then expressed as a percentage of Compound A, the standard in every experiment. This percent activation was calculated either in the presence or absence of DETA-NO which was then plotted. IP and maximum fold induction was derived using ADA analysis software for 4P fit.

Compound | % Act. [%] | pEC50 | Emax [%]
4-Amino-5-cyclopropyl-2-(6-((3,3-difluorocyclobutyl)methyl)-1-methyl-1H-pyrazolo[3,4-d]pyrimidin-4-yl)-5-(5-ethyl-1,3,4-oxadiazol-2-yl)-5,7-dihydro-6H-pyrrolo[2,3-d]pyrimidin-6-one [Example 52] | 148 | 7.05 | 
4-Amino-5-ethyl-2-(1-methyl-6-(3,3,4,4,4-pentafluorobutyl)-1H-pyrazolo[3,4-d]pyrimidin-4-yl)-5-(1-propyl-1H-1,2,3-triazol-4-yl)-5,7-dihydro-6H-pyrrolo[2,3-d]pyrimidin-6-one [Example 73] | 117 | 6.38 | 
4-Amino-5-methyl-5-(5-methyl-1,3,4-thiadiazol-2-yl)-2-(1-methyl-6-(3,3,4,4,4-pentafluorobutyl)-1H-pyrazolo[3,4-d]pyrimidin-4-yl)-5,7-dihydro-6H-pyrrolo[2,3-d]pyrimidin-6-one [Example 27] | 89 | 6.68 | 
CCCCc1nc(-c2nc(N)c3c(n2)NC(=O)C3(C)c2ccc(OC)cn2)c2cnn(C)c2n1 (single isomer, unassigned) [Example 36, 4-Amino-2-(6-butyl-1-methyl-1H-pyrazolo[3,4-d]pyrimidin-4-yl)-5-(5-methoxypyridin-2-yl)-5-methyl-5,7-dihydro-6H-pyrrolo[2,3-d]pyrimidin-6-one] |  | 7.37 | 116
[2H]C([2H])([2H])n1ncc2c(-c3nc(N)c4c(n3)NC(=O)C4(c3nnc(C)o3)C3CC3)nc(CCC(F)(F)C(F)(F)F)nc21 (single isomer, unassigned) [Example 40A, 4-Amino-5-cyclopropyl-5-(5-methyl-1,3,4-oxadiazol-2-yl)-2-(1-(methyl-d3)-6-(3,3,4,4,4-pentafluorobutyl)-1H-pyrazolo[3,4-d]pyrimidin-4-yl)-5,7-dihydro-6H-pyrrolo[2,3-d]pyrimidin-6-one] | 89 | 6.43 | 
[2H]C([2H])([2H])n1ncc2c(-c3nc(N)c4c(n3)NC(=O)C4(c3nnc(C)o3)C3CC3)nc(CCC(F)(F)C(F)(F)F)nc21 (single isomer, unassigned) [Example 40B, 4-Amino-5-cyclopropyl-5-(5-methyl-1,3,4-oxadiazol-2-yl)-2-(1-(methyl-d3)-6-(3,3,4,4,4-pentafluorobutyl)-1H-pyrazolo[3,4-d]pyrimidin-4-yl)-5,7-dihydro-6H-pyrrolo[2,3-d]pyrimidin-6-one] | 68 | 6.53 | 
[2H]C([2H])([2H])n1ncc2c(-c3nc(N)c4c(n3)NC(=O)C4(C)c3cn(C(C)C)nn3)nc(CCC(F)(F)C(F)(F)F)nc21 (single isomer, unassigned) [Example 57, 4-Amino-5-(1-isopropyl-1H-1,2,3-triazol-4-yl)-5-methyl-2-(1-(methyl-d3)-6-(3,3,4,4,4-pentafluorobutyl)-1H-pyrazolo[3,4-d]pyrimidin-4-yl)-5,7-dihydro-6H-pyrrolo[2,3-d]pyrimidin-6-one] |  | 6.83 | 125
CCC1(c2cn(C)nn2)C(=O)Nc2nc(-c3nc(CCC(F)(F)C(F)(F)F)nc4c3cnn4C)nc(N)c21 (single isomer, unassigned) [Example 58, 4-Amino-5-ethyl-5-(1-methyl-1H-1,2,3-triazol-4-yl)-2-(1-methyl-6-(3,3,4,4,4-pentafluorobutyl)-1H-pyrazolo[3,4-d]pyrimidin-4-yl)-5,7-dihydro-6H-pyrrolo[2,3-d]pyrimidin-6-one] |  | 6.15 | 105
Cn1ncc2c(-c3nc(N)c4c(n3)NC(=O)C4(C)c3c[nH]nn3)nc(CCC(F)(F)C(F)(F)F)nc21 (single isomer, unassigned) [Example 60, 4-Amino-S-methyl-2-(1-methyl-6-(3,3,4,4,4-pentafluorobutyl)-1H-pyrazolo[3,4-d]pyrimidin-4-yl)-5-(1H-1,2,3-triazol-4-yl)-5,7-dihydro-6H-pyrrolo[2,3-d]pyrimidin-6-one] |  | 6.03 | 136
Cn1cc(C2(C3CC3)C(=O)Nc3nc(-c4nc(CCCC(F)(F)F)nc5c4cnn5C)nc(N)c32)nn1 (single isomer, unassigned) [Example 62, 4-Amino-5-cyclopropyl-5-(1-methyl-1H-1,2,3-triazol-4-yl)-2-(1-methyl-6-(4,4,4-trifluorobutyl)-1H-pyrazolo[3,4-d]pyrimidin-4-yl)-5,7-dihydro-6H-pyrrolo[2,3-d]pyrimidin-6-one] |  | 6.10 | 99
CCC1(c2cn(C(C)C)nn2)C(=O)Nc2nc(-c3nc(CCC(F)(F)C(F)(F)F)nc4c3cnn4C)nc(N)c21 (single isomer, unassigned) [Example 68, 4-Amino-5-ethyl-5-(1-isopropyl-1H-1,2,3-triazol-4-yl)-2-(1-methyl-6-(3,3,4,4,4-pentafluorobutyl)-1H-pyrazolo[3,4-d]pyrimidin-4-yl)-5,7-dihydro-6H-pyrrolo[2,3-d]pyrimidin-6-one] |  | 6.09 | 133
CCCn1cc(C2(C)C(=O)Nc3nc(-c4nc(CCC(F)(F)C(F)(F)F)nc5c4cnn5C)nc(N)c32)nn1 (single isomer, unassigned) [Example 71, 4-Amino-5-methyl-2-(1-methyl-6-(3,3,4,4,4-pentafluorobutyl)-1H-pyrazolo[3,4-d]pyrimidin-4-yl)-5-(1-propyl-1H-1,2,3-triazol-4-yl)-5,7-dihydro-6H-pyrrolo[2,3-d]pyrimidin-6-one] |  | 6.66 | 169
CCCn1cc(C2(CC)C(=O)Nc3nc(-c4nc(CCC(F)(F)C(F)(F)F)nc5c4cnn5C)nc(N)c32)nn1 (single isomer, unassigned) [Example 72, 4-Amino-5-ethyl-2-(1-methyl-6-(3,3,4,4,4-pentafluorobutyl)-1H-pyrazolo[3,4-d]pyrimidin-4-yl)-5-(1-propyl-1H-1,2,3-triazol-4-yl)-5,7-dihydro-6H-pyrrolo[2,3-d]pyrimidin-6-one] |  | 6.30 | 121

Source: patent publication US9611278B2 (Merck Sharp & Dohme Corp., priority 2013, dated 2017)
